Key:
MCHR1 [1] = target: T1, MCHR1 (Homo sapiens, UniProt Q99705); conditions: literature (Takekawa et al. 2002; Borowsky et al. 2002); cited from earlier work
[2] = target: T2, melanin concentrating hormone receptor (MCHR) (Homo sapiens, UniProt Q99705); assay: Ca++-mobilization assay using I3.4.2 cells (FLIPR); assay type: cell-based; conditions: for inhibition of MCH-stimulated intracellular Ca++-flux: T42402I3.4.2 cell line, FIG. 3
T2 construct: endogenous in cells; host or cells: T42402I3.4.2 (I3.4.2) cells, ATCC PTA-5201, derived from IMR32 (ATCC CCL-127) by transfection of a Galpha16/Zeocin-resistance plasmid
T2 sequence (Q99705 whole entry): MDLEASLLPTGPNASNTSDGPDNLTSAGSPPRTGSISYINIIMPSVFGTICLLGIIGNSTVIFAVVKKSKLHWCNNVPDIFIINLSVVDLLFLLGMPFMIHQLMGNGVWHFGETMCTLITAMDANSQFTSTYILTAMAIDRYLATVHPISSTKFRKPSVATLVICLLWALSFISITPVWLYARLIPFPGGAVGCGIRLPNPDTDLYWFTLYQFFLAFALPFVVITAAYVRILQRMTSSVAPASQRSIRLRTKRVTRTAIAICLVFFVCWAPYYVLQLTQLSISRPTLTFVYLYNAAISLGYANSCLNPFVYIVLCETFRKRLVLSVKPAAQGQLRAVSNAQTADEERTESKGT
Experimental: The following day, Zeocin (Invitrogen, Carlsbad, Calif.) was added to a final concentration of 20 μg/ml. Cells were maintained in this medium with periodic replacement until discrete colonies were observed. Individual colonies were isolated and propagated until sufficiently large cell populations were obtained such that the cell samples could be cryopreserved.
This intracellular calcium release is measured using a fluorometeric imaging plate reader (FLIPR™, Molecular Devices Corp., Sunnyvale, Calif.) in conjunction with the Ca^++-sensitive dye reagent (Calcium Assay Reagent, Molecular Devices Corp., Sunnyvale, Calif.). Release of Ca^++ from intracellular stores causes an increase in fluorescence of the dye that is proportional to Ca^++ concentration. Thus, this method may be utillized to identify agonist-s, antagonists, and inverse agonists of MCHR1.
In particular, the assay is carried out as follows: The cells are cultured in MEM/10% fetal bovine serum/50 μg/mL gentamicin/200 μg/ml Zeocin. […] Calcium Assay Reagent fluorescence is measured at 488 nm, with an exposure of 0.40 sec. and F-stop=2.0 and the laser set at 0.20-0.40 W constant light output.

MCHR1 [3] = target: T1, MCHR1; conditions: literature (Takekawa et al. 2002; Borowsky et al. 2002); cited from earlier work; remark: listed apart in the source

T1 sequence (Q99705 whole entry, species assumed): as the sequence (Q99705 whole entry) above

inhibition of MCH-stimulated intracellular Ca++-flux [2]	SMILES	inhibition of binding of 125I-labeled MCH to MCHR1 (MCHR1 [1])	inhibition of activation of intracellular signaling by MCH (MCHR1 [3])	MCH-induced response (fluorescence) ([2]; MCH 1 μM, baseline approximately 700 RFU)
inhibited	COCC1=C(C(=O)OC)[C@H](c2ccc(F)c(F)c2)N(C(=O)NCCCN2CCC(c3cccc(NC(C)=O)c3)CC2)C(=O)N1 [SNAP-7941]	inhibit binding	inhibit	–
–	CSCC[C@@H]1NC(=O)[C@@H](NC(=O)[C@H](CCCNC(=N)N)NC(=O)[C@H](CC(C)C)NC(=O)[C@H](CCSC)NC(=O)[C@H](CC(=O)O)NC(=O)[C@H](Cc2ccccc2)NC(=O)[C@@H](N)CC(=O)O)CSSC[C@@H](C(=O)N[C@@H](Cc2c[nH]c3ccccc23)C(=O)N[C@@H](CCC(N)=O)C(=O)N[C@H](C(=O)O)C(C)C)NC(=O)[C@@H]2CCCN2C(=O)[C@H](CCCNC(=N)N)NC(=O)[C@H](Cc2ccc(O)cc2)NC(=O)[C@H](C(C)C)NC(=O)[C@H](CCCNC(=N)N)NC(=O)CNC(=O)[C@H](CC(C)C)NC1=O [MCH, melanin-concentrating hormone]	–	–	5,000-6,000 relative fluorescence units (RFU)
inhibited	CN(C)CC1CCc2cc(NC(=O)c3ccc(-c4ccc(F)cc4)cc3)ccc2C1 (stereo not shown) [T-226296]	inhibit binding	inhibit	–
